# Test results taken from publication PMC3221503, “Study on Cytochrome P-450 Dependent Retinoic Acid Metabolism and its Inhibitors as Potential Agents for Cancer Therapy” (Scientia Pharmaceutica, 2011).
# Where two headings read alike, the source gives them in different places.
# Tests used:
# [1] = parameters: method as in PMID 1328295; settings: cleared from the plasma; cited from earlier work
# [2] = system: mouse embryo; parameters: method as in PMID 1965892; settings: cited from earlier work
# [3] = system: cytochrome P-450 dependent retinoic acid metabolism; test: RA metabolism assay: in vitro inhibition of retinoic acid metabolism by P-450 inhibitors; settings: male, rat
# Procedure: (§1) Controls (10 μl, DMSO) were also carried with each experiment.
# (§2) The assay followed a previously described one [17]: The column was a 10 μm C18 μ Bondapak (3.9× 300mm, Millipore) and the mobile phase was acetonitrile: water: formic acid (75:25:0.05v/v) containing 10 mM ammonium acetate. Flow rate was 1.2 ml.Min^−1. Eluted ^3H compounds were detected on line by a model 970 detector (Reeve) using Hisafe III scintillation fluid. The retention time of ^3H-RA was 10 min and oxidative metabolites of ^3H-RA were detected, eluting samples over 3 to 7 min. Metabolism was determined from the % conversion of RA into its total metabolites based on AUC values.
# (§3) Three separate experiments (each with triplicate tubes) were carried out.
# (§4) The IC50 for ketoconazole and liarozole were determined for comparative purposes.
# (§5) The IC50 was calculated from a plot of percentage inhibition versus log inhibitor concentration using Cricket Graph 1.3.
# [4] = system: cytochrome P-450 dependent retinoic acid metabolism in male rat hepatic microsomes; test: as above; settings: inhibitor 100 μM, RA 3 μM, male rat hepatic microsomes 0.12 mg/ml, 37°C, 15 min, mean of three determinations, (-) denotes stimulation of RA metabolism
# Procedure: as §1, §2, §3, §4, §5
# [5] = system: cytochrome P-450 dependent retinoic acid metabolism in male rat hepatic microsomes; settings: pH 7.4
# Procedure: as §1, §2, §3, §4, §5
# [6] = rat liver microsomes, pH 7.4, probe 3H-retinoic acid (RA), 3 μM
smiles,measurement,setting,value
"CC1=C(/C=C/C(C)=C/C=C/C(C)=C/C(=O)O)C(C)(C)CCC1 [RA, All-trans-retinoic acid]",plasma t ½,[1],< 1 h
same,developmental / teratogenic effect,"[2]; dose of 1 mg/Kg RA, mice",no teratogenic effects
same,increase in the level of RA in mouse embryo limb buds,[2]; dose of 10 mg/Kg body weight of RA,approximately 50 fold
same,developmental / teratogenic effect,"[2]; dose of 10 mg/Kg body weight of RA, mouse",developmental abnormalities
"Cc1nc2cc(-c3ccccc3)ccc2o1 [2-Methyl-5-phenyl-1,3-benzoxazole]","inhibition at 15 min, 100 μM",[3]; [6],18%
CN1C(=O)CC(c2ccccc2)C1=O (stereo not drawn) [Phensuximide],"inhibition at 15 min, 100 μM",[3]; [6],3.5%
c1ccc(-c2ccc(C(c3ccccc3)n3ccnc3)cc2)cc1 (stereo not drawn) [Bifonazole],"inhibition at 15 min, 100 μM",[3]; [6],47.5%
CCC1(c2ccc([N+](=O)[O-])cc2)CCC(=O)NC1=O (stereo not drawn) [Nitroglutethimide],% Inhibition of retinoic acid metabolism,[4],−1.4%
c1ccc(Cn2ccnc2)cc1 [1-Benzylimidazole],% Inhibition of retinoic acid metabolism,[4],7.6%
"Brc1ccc(-c2csnn2)cc1 [4-(4-Bromophenyl)-1,2,3-thiadiazole]","inhibition at 15 min, 100 μM",[3]; [6],11.6%
CN(C)CCCN1c2ccccc2Sc2ccc(Cl)cc21 [Chlorpromazine],% Inhibition of retinoic acid metabolism,[4],85.0%
same,% Inhibition of retinoic acid metabolism,[4]; listed as chlorpromazine,> 50%
same,IC50 at 15 min,[3]; [6],16.9 ± 1.7 µM
CC(=O)C[C@H](c1ccccc1)c1c(O)c2ccccc2oc1=O [R-Warfarin],% Inhibition of retinoic acid metabolism,[4],3.0%
C[C@@H]1[C@H](O)[C@@H](C)/C=C/C=C/C=C/C=C/C=C/C=C/C=C/[C@H](O[C@@H]2O[C@H](C)[C@@H](O)[C@H](N)[C@@H]2O)C[C@@H]2O[C@](O)(C[C@@H](O)C[C@@H](O)[C@H](O)CC[C@@H](O)C[C@@H](O)CC(=O)O[C@H]1C)C[C@H](O)[C@H]2C(=O)O [Amphotericin],"inhibition at 15 min, 100 μM",[3]; [6],6.24%
CCC1(c2ccc(N)cc2)CCC(=O)NC1=O (stereo not drawn) [Aminoglutethimide],"inhibition at 15 min, 100 μM",[3]; [6],30.8%
COc1ccc2ccc(=O)oc2c1 [7-Methoxycoumarin],"inhibition at 15 min, 100 μM",[3]; [6],11.7%
O=c1cc(O)c2ccccc2o1 [4-Hydroxycoumarin],% Inhibition of retinoic acid metabolism,[4],38.50%
CC(=O)C[C@@H](c1ccccc1)c1c(O)c2ccccc2oc1=O [S-Warfarin],% Inhibition of retinoic acid metabolism,[4],6.5%
O=C(O)/C=C\C(=O)O.S=C(NC1CCCCC1)N1CCC(c2cnc[nH]2)CC1 [Thiopermide maleate],% Inhibition of retinoic acid metabolism,[4],3.4%
C[C@@H]1[C@H](O)[C@@H](C)/C=C/C=C/CC/C=C/C=C/C=C/C=C/C(O[C@H]2O[C@H](C)[C@@H](O)[C@H](N)[C@@H]2O)CC2O[C@](O)(CC(O)C(O)CCC(O)CC(O)CC(O)CC(=O)O[C@H]1C)CC(O)C2C(=O)O (stereo partly drawn) [Nystatin],% Inhibition of retinoic acid metabolism,[4],5.44%
O=C(Cn1ccnc1)c1ccc2ccccc2c1 [Nafimidone],"inhibition at 15 min, 100 μM",[3]; [6],12%
"Clc1cccc(-c2cnco2)c1 [5-(3-Chlorophenyl)-1,3-oxazole]","inhibition at 15 min, 100 μM",[3]; [6],8.6%
CCC1(c2ccccc2)C(=O)NC(=O)NC1=O [Phenobarbitone],% Inhibition of retinoic acid metabolism,[5],0.0%
C[C@@H](Cc1ccccc1)N(C)Cc1ccccc1 [Benzphetamine],% Inhibition of retinoic acid metabolism,[5],46.0%
COc1ccc2c(c1)c(CC(=O)O)c(C)n2C(=O)c1ccc(Cl)cc1 [Indomethacin],"inhibition at 15 min, 100 μM",[3]; [6],0%
CCCC(C(=O)OCCN(CC)CC)(c1ccccc1)c1ccccc1 [Proadifen],% Inhibition of retinoic acid metabolism,[4],86.0%
same,% Inhibition of retinoic acid metabolism,[4]; listed as proadifen,> 50%
same,IC50 at 15 min,[3]; [6],1 ± 0.14 µM
NCCc1c[nH]cn1 [Histamine],"inhibition at 15 min, 100 μM",[3]; [6],0%
Clc1ccc(COC(Cn2ccnc2)c2ccc(Cl)cc2Cl)c(Cl)c1 (stereo not drawn) [Miconazole],"inhibition at 15 min, 100 μM",[3]; [6],13.5%
CCC(C)n1ncn(-c2ccc(N3CCN(c4ccc(OCC5COC(Cn6cncn6)(c6ccc(Cl)cc6Cl)O5)cc4)CC3)cc2)c1=O (stereo not drawn) [Itraconazole],% Inhibition of retinoic acid metabolism,[4],68.7%
same,IC50 at 15 min,[3]; [6],17.4 ± 1 µM
same,"inhibition at 15 min, 100 μM",[3]; [6],> 50%
Clc1ccc(COC(Cn2ccnc2)c2ccc(Cl)cc2Cl)cc1 (stereo not drawn) [Econazole],"inhibition at 15 min, 100 μM",[3]; [6],14%
COC1=CC(=O)C[C@@H](C)[C@]12Oc1c(Cl)c(OC)cc(OC)c1C2=O [Griseofulvin],"inhibition at 15 min, 100 μM",[3]; [6],0%
CC(=O)Oc1ccccc1C(=O)O [Aspirin],"inhibition at 15 min, 100 μM",[3]; [6],5%
"c1csc(-c2nnco2)c1 [2-(Thiophen-2-yl)-1,3,4-oxadiazole]","inhibition at 15 min, 100 μM",[3]; [6],0%
O=c1ccc2ccccc2o1 [Coumarin],"inhibition at 15 min, 100 μM",[3]; [6],37%
CC(=O)N1CCN(c2ccc(OCC3COC(Cn4ccnc4)(c4ccc(Cl)cc4Cl)O3)cc2)CC1 (stereo not drawn) [Ketoconazole],IC50 at 15 min,[3]; [6],13.5 ± 1.3 µM
same,"inhibition at 15 min, 100 μM",[3]; [6],87.5%
"Cc1ccc(-c2ncns2)cc1 [5-(4-Methylphenyl)-1,2,4-thiadiazole]","inhibition at 15 min, 100 μM",[3]; [6],4.8%
c1ccc(CCNCc2ccccc2)cc1 [N-Benzyl-2-phenylethanamine],% Inhibition of retinoic acid metabolism,[4],85.0%
same,% Inhibition of retinoic acid metabolism,[4]; listed as N-benzyl-2-phenylethanamine,> 50%
same,IC50 at 15 min,[3]; pH 7.4,17.1 ± 3.2 µM
Clc1cccc(C(c2ccc3[nH]cnc3c2)n2ccnc2)c1 (stereo not drawn) [Liarozole],IC50 at 15 min,[3]; [6],4.2 ± 0.1 µM
same,"inhibition at 15 min, 100 μM",[3]; [6],89%
CN/C(=N/CCSCc1nc[nH]c1C)NC#N [Cimetidine],"inhibition at 15 min, 100 μM",[3]; [6],1%
c1ccc2[nH]c(-c3cscn3)nc2c1 [Thiabendazole],"inhibition at 15 min, 100 μM",[3]; [6],-4.31%
Clc1ccccc1C(c1ccccc1)(c1ccccc1)n1ccnc1 [Clotrimazole],"inhibition at 15 min, 100 μM",[3]; [6],34.4%
O=C(O)c1cc(-c2ccc(F)cc2F)ccc1O [Diflunisal],"inhibition at 15 min, 100 μM",[3]; [6],2%
